Assay results published in US20040156869A1, “2-substituted quinazolin-4-ylamine analogues” (Neurogen Corporation, priority 2002, published 2004).

Molecular target: human capsaicin receptor (VR1) (Homo sapiens, UniProt Q8NER1)
Experiment: Capsaicin receptor binding assay ([3H]RTX competition, VR1-transfected HEK293 membranes)

Sequence of human capsaicin receptor (VR1) (Q8NER1 whole entry): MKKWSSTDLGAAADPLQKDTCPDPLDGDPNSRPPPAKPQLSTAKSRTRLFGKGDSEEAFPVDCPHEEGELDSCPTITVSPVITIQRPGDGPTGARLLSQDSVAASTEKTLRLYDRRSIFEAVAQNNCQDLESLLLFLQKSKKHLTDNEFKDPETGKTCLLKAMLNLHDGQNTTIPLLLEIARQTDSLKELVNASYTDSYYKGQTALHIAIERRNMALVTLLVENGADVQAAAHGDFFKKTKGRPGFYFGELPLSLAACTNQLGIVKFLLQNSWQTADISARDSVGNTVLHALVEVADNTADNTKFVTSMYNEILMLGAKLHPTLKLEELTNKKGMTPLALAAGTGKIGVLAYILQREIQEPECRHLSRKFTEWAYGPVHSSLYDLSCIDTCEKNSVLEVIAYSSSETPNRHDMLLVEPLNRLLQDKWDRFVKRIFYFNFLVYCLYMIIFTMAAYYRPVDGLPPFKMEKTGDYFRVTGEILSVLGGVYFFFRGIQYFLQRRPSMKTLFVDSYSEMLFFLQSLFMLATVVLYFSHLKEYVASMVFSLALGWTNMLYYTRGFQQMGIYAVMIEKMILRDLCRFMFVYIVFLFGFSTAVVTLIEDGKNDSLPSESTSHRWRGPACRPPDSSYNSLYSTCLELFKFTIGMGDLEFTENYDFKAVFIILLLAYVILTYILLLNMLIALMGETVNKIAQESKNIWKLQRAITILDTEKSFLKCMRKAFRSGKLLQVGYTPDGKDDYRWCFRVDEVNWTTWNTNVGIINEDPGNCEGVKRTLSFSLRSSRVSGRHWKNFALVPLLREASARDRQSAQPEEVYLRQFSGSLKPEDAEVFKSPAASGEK

Ki, < 1000 nM:
COCc1nc(Nc2ccc(C(C)(C)C)cc2)c2ccc(-c3nccnc3Cl)nc2n1 [Compound 236, (4-tert-Butyl-phenyl)-[7-(3-chloro-pyrazin-2-yl)-2-methoxymethyl-pyrido[2,3-d]pyrimidin-4-yl]-amine]
CC(c1ccccc1)N(C)Cc1nc(Nc2ccc(C(F)(F)F)cc2)c2ccc(-c3ncccc3C(F)(F)F)cc2n1 (stereo not shown) [Compound 323, [2-{[Methyl-(1-phenyl-ethyl)-amino]-methyl}-7-(3-trifluoromethyl-pyridin-2-yl)-quinazolin-4-yl]-(4-trifluoromethyl-phenyl)-amine]
CCOC(=O)Cc1ccc(Nc2nc(COCC(C)C)nc3nc(-c4ncccc4Cl)ccc23)cc1 [Compound 283, {4-[7-(3-Chloro-pyridin-2-yl)-2-isobutoxymethyl-pyrido[2,3-d]pyrimidin-4-ylamino]-phenyl}-acetic acid ethyl ester]
FC(F)(F)c1ccc(Nc2nc(CCCOCc3ccccc3)nc3cc(-c4ncccc4C(F)(F)F)ccc23)cn1 [Compound 13, [2-(3-Benzyloxy-propyl)-7-(3-trifluoromethyl-pyridin-2-yl)-quinazolin-4-yl]-(6-trifluoromethyl-pyridin-3-yl)-amine]
FC(F)(F)c1ccc(Nc2nc(C3N=NN=N3)nc3cc(-c4ncccc4C(F)(F)F)ccc23)cc1 [Compound 510, [2-(5H-Tetrazol-5-yl)-7-(3-trifluoromethyl-pyridin-2-yl)-quinazolin-4-yl]-(4-trifluoromethyl-phenyl)-amine]
C[C@@H]1CN(Cc2nc(Nc3ccc(C(C)(C)C)nc3)c3ccc(-c4ncccc4C(F)(F)F)cc3n2)C[C@@H](C)O1 [Compound 611, (R,R)-(6-tert-Butyl-pyridin-3-yl)-[2-(2,6-dimethyl-morpholin-4-ylmethyl)-7-(3-trifluoromethyl-pyridin-2-yl)-quinazolin-4-yl]-amine]
COCc1nc(Nc2ccc(C(C)C)cc2)c2ccc(-c3ncccc3C(F)(F)F)nc2n1 [Compound 108, (4-Isopropyl-phenyl)-[2-methoxymethyl-7-(3-trifluoromethyl-pyridin-2-yl)-pyrido[2,3-d]pyrimidin-4-yl]-amine]
CS(=O)(=O)NCc1nc(Nc2ccc(C(F)(F)F)cc2)c2ccc(-c3ncccc3C(F)(F)F)cc2n1 [Compound 506, N-[4-(4-Trifluoromethyl-phenylamino)-7-(3-trifluoromethyl-pyridin-2-yl)-quinazolin-2-ylmethyl]-methanesulfonamide]
C[C@@H]1CN(Cc2nc(Nc3ccc(C(F)(F)F)cc3)c3ncc(-c4ncccc4Cl)cc3n2)C[C@H](C)O1 [Compound 615, [7-(3-Chloro-pyridin-2-yl)-2-(2,6-dimethyl-morpholin-4-ylmethyl)-pyrido[3,2-d]pyrimidin-4-yl]-(4-trifluoromethyl-phenyl)-amine (cis)]
C[C@H]1CN(Cc2nc(Nc3ccc(C(C)(C)C)cc3)c3ccc(-c4ncccc4C(F)(F)F)cc3n2)CCO1 [Compound 685, (S)-(4-tert-Butyl-phenyl)-[2-(2-methyl-morpholin-4-ylmethyl)-7-(3-trifluoromethyl-pyridin-2-yl)-quinazolin-4-yl]-amine]
COCCCNC(=O)c1nc(Nc2ccc(C(F)(F)F)cc2)c2ccc(-c3ncccc3C(F)(F)F)nc2n1 [Compound 456, 4-(4-Trifluoromethyl-phenylamino)-7-(3-trifluoromethyl-pyridin-2-yl)-pyrido[2,3-d]pyrimidine-2-carboxylic acid (3-methoxy-propyl)-amide]
CCCCN(CCCC)Cc1nc(Nc2ccc(C(F)(F)F)nc2)c2ccc(-c3ncccc3C(F)(F)F)cc2n1 [Compound 377, [2-Dibutylaminomethyl-7-(3-trifluoromethyl-pyridin-2-yl)-quinazolin-4-yl]-(6-trifluoromethyl-pyridin-3-yl)-amine]
CC1c2ccccc2CCN1Cc1nc(Nc2ccc(C(F)(F)F)nc2)c2ccc(-c3ncccc3C(F)(F)F)cc2n1 (stereo not shown) [Compound 351, [2-(1-Methyl-3,4-dihydro-1H-isoquinolin-2-ylmethyl)-7-(3-trifluoromethyl-pyridin-2-yl)-quinazolin-4-yl]-(6-trifluoromethyl-pyridin-3-yl)-amine]
COCc1nc(Nc2ccc(C3CCCCC3)cc2)c2ncc(-c3ncccc3C(F)(F)F)cc2n1 [Compound 56, (4-Cyclohexyl-phenyl)-[2-methoxymethyl-7-(3-trifluoromethyl-pyridin-2-yl)-pyrido[3,2-d]pyrimidin-4-yl]-amine]
CCCN(CC)Cc1nc(Nc2ccc(S(=O)(=O)N3CCOCC3)cc2)c2ccc(-c3ncccc3C(F)(F)F)cc2n1 [Compound 724, [2-[(Ethyl-propyl-amino)-methyl]-7-(3-trifluoromethyl-pyridin-2-yl)-quinazolin-4-yl]-[4-(morpholine-4-sulfonyl)-phenyl]-amine]
CCN(CC)CCCOCc1nc(Nc2ccc(C(F)(F)F)cc2)c2ccc(-c3ncccc3C(F)(F)F)cc2n1 [Compound 115, [2-(3-Diethylamino-propoxymethyl)-7-(3-trifluoromethyl-pyridin-2-yl)-quinazolin-4-yl]-(4-trifluoromethyl-phenyl)-amine]
FC(F)(F)c1ccc(Nc2nc(CN3CCN(CCN4CCOCC4)CC3)nc3cc(-c4ncccc4C(F)(F)F)ccc23)cc1 [Compound 518, [2-[4-(2-Morpholin-4-yl-ethyl)-piperazin-1-ylmethyl]-7-(3-trifluoromethyl-pyridin-2-yl)-quinazolin-4-yl]-(4-trifluoromethyl-phenyl)-amine]
Cc1cccnc1-c1ccc2c(Nc3ccc(C(C)(C)C)cc3)nc(CN3C[C@@H](C)O[C@@H](C)C3)nc2c1 [Compound 635, (4-tert-Butyl-phenyl)-[2-(2,6-dimethyl-morpholin-4-ylmethyl)-7-(3-methyl-pyridin-2-yl)-quinazolin-4-yl]-amine (cis)]
FC(F)(F)c1ccc(Nc2nc(CN3CCCCC3)nc3cc(-c4ncccc4C(F)(F)F)ccc23)cn1 [Compound 359, [2-Piperidin-1-ylmethyl-7-(3-trifluoromethyl-pyridin-2-yl)-quinazolin-4-yl]-(6-trifluoromethyl-pyridin-3-yl)-amine]
COCc1cc(Nc2ccc(Cl)cc2)c2ccc(-c3ncccc3C(F)(F)F)nc2n1 [Compound 302, (4-Chloro-phenyl)-[2-methoxymethyl-7-(3-trifluoromethyl-pyridin-2-yl)-[1,8]naphthyridin-4-yl]-amine]
FC(F)(F)c1ccc(Nc2nc(C3CCNCC3)nc3cc(-c4ncccc4C(F)(F)F)ccc23)cc1 [Compound 679, [2-Piperidin-4-yl-7-(3-trifluoromethyl-pyridin-2-yl)-quinazolin-4-yl]-(4-trifluoromethyl-phenyl)-amine]
COCc1nc2nc(-c3ncccc3C(F)(F)F)ccc2c(Nc2ccc(C(F)(F)F)cc2)c1C(=O)OC [Compound 299, 2-Methoxymethyl-4-(4-trifluoromethyl-phenylamino)-7-(3-trifluoromethyl-pyridin-2-yl)-[1,8]naphthyridine-3-carboxylic acid methyl ester]
CCOCc1nc(Nc2ccc(C(F)F)cc2)c2ccc(-c3ncccc3Cl)nc2n1 [Compound 244, [7-(3-Chloro-pyridin-2-yl)-2-ethoxymethyl-pyrido[2,3-d]pyrimidin-4-yl]-(4-difluoromethyl-phenyl)-amine]
CC(C)COCc1nc(Nc2ccc(S(=O)(=O)C(F)(F)F)cc2)c2ccc(-c3ncccc3Cl)nc2n1 [Compound 181, [7-(3-Chloro-pyridin-2-yl)-2-isobutoxymethyl-pyrido[2,3-d]pyrimidin-4-yl]-(4-trifluoromethanesulfonyl-phenyl)-amine]
CCCCN(CC)Cc1nc(Nc2ccc(C(F)(F)F)nc2)c2ccc(-c3ncccc3C(F)(F)F)cc2n1 [Compound 374, [2-[(Butyl-ethyl-amino)-methyl]-7-(3-trifluoromethyl-pyridin-2-yl)-quinazolin-4-yl]-(6-trifluoromethyl-pyridin-3-yl)-amine]
CC1CCCN(Cc2nc(Nc3ccc(C(F)(F)F)cc3)c3ccc(-c4ncccc4C(F)(F)F)cc3n2)C1 (stereo not shown) [Compound 498, [2-(3-Methyl-piperidin-1-ylmethyl)-7-(3-yl)-quinazolin-4-yl]-(4-trifluoromethyl-phenyl)-amine]
CN1CCCN(Cc2nc(Nc3ccc(C(F)(F)F)cc3)c3ccc(-c4ncccc4C(F)(F)F)cc3n2)CC1 [Compound 705, [2-(4-Methyl-[1,4]diazepan-1-ylmethyl)-7-(3-trifluoromethyl-pyridin-2-yl)-quinazolin-4-yl]-(4-trifluoromethyl-phenyl)-amine]
FC(F)(F)c1ccc(Nc2nc(CNCc3ccccc3)nc3cc(-c4ncccc4C(F)(F)F)ccc23)cn1 [Compound 574, [2-(Benzylamino-methyl)-7-(3-trifluoromethyl-pyridin-2-yl)-quinazolin-4-yl]-(6-trifluoromethyl-pyridin-3-yl)-amine]
CN(Cc1ccccc1)Cc1nc(Nc2ccc(C(F)(F)F)nc2)c2ccc(-c3ncccc3C(F)(F)F)cc2n1 [Compound 575, [2-[(Benzyl-methyl-amino)-methyl]-7-(3-trifluoromethyl-pyridin-2-yl)-quinazolin-4-yl]-(6-trifluoromethyl-pyridin-3-yl)-amine]
CCN1CCC(c2nc(Nc3ccc(C(F)(F)F)cc3)c3ccc(-c4ncccc4C(F)(F)F)cc3n2)CC1 [Compound 689, [2-(1-Ethyl-piperidin-4-yl)-7-(3-trifluoromethyl-pyridin-2-yl)-quinazolin-4-yl]-(4-trifluoromethyl-phenyl)-amine]
OCC1CCN(CCCc2nc(Nc3ccc(C(F)(F)F)cc3)c3ccc(-c4ncccc4C(F)(F)F)cc3n2)CC1 [Compound 569, (1-{3-[4-(4-Trifluoromethyl-phenylamino)-7-(3-trifluoromethyl-pyridin-2-yl)-quinazolin-2-yl]-propyl}-piperidin-4-yl)-methanol]
